The conditions of series [1]: cited from earlier work.
For series [2] the following is noted: vs doxorubicin, methotrexate and vincristine; cited from earlier work.
Another series deals with mice. Conditions: single intravenous dose of 12.5 μg/kg; cited from earlier work.
The conditions of series [3]: phenyl carbamate prodrug of adozelesin; cited from earlier work.
Series [4] in a line: stability in aqueous solutions. The series is classed as physicochemical.
The subject of the next series is carboxyl esterase. The experiment in a line: conversion of carbamate prodrug into parent drug by incubation in serum, plasma or with carboxyl esterase. The series is classed as in vitro ADME. Conditions: plasma or with an enzyme such as carboxyl esterase.
The conditions of series [5]: as compared with DC1.
Another series deals with alkaline phosphatase. As to conditions: incubation with alkaline phosphatase. The method, then:
Cells to be evaluated can be exposed to the compounds for 24 hours and the surviving fractions of cells measured in direct assays by known methods.

Series [6] relates to endogenous alkaline phosphatase. As to conditions: presumably hydrolysis by endogenous alkaline phosphatase; cited from earlier work.

We go through 7 compounds from patent US7906545B2, “Prodrugs of CC-1065 analogs” (priority 2002, dated 2011).

Structures are written as SMILES.

From the text for carboxyl esterase: Thus, piperazino carbamate and 4-piperidino-piperidino carbamate protecting groups are enzyme-cleavable by enzymes such as carboxyl esterase, which occurs in serum and plasma. Phosphate protecting groups are cleavable by phosphatase enzymes such as alkaline phosphatase.

Consider `Cc1c[nH]c2c1[C@@]13C[C@@H]1CN(C(=O)c1cc4cc(NC(=O)c5cc6ccccc6o5)ccc4[nH]1)C3=CC2=O` [Adozelesin], for which, in series [1], the “systemic toxicity in clinical evaluation” value is on record as “high systemic toxicity” and the “therapeutic effects in clinical evaluation” value is “poor therapeutic effects”.
Regarding `COc1c(O)c2c(c3cc(C(=O)N4CCc5c4c(O)c(OC)c4[nH]c(C(=O)N6CC7CC78C6=CC(=O)c6[nH]cc(C)c68)cc54)[nH]c13)CCN2C(N)=O` (centres unmarked) [CC-1065], in [2], the “potency in vitro relative to commonly used anti-cancer drugs” value is listed as “about 1000 fold”. The “delayed toxicity in mice” value with mice is recorded as “delayed hepatotoxicity leading to mortality on day 50”.
Turning to `CCN(CC)c1ccc2cc(C(=O)Nc3ccc4[nH]c(C(=O)N5C[C@@H](CCl)c6c5cc(OC(=O)Nc5ccccc5)c5[nH]cc(C)c65)cc4c3)oc2c1` [Carzelesin], in series [3], the lability of prodrug entry is on record as “too labile for therapeutic use”. In addition, in series [1], the “systemic toxicity in clinical evaluation” value is on record as “high systemic toxicity” and the “therapeutic effects in clinical evaluation” value was “poor therapeutic effects”.
On to `CN1CCN(C(=O)Oc2cc3c(c4ccccc24)[C@H](CCl)CN3C(=O)c2cc3cc(NC(=O)c4cc5cc(NC(=O)CCS)ccc5[nH]4)ccc3[nH]2)CC1` [DC2], for which, in series [4], the “stability in aqueous solutions” value is listed as “extremely stable”. In the series with carboxyl esterase, the “conversion into the parent drug DC1” value was “can be converted into the parent drug DC1”. In addition, in [5], the water solubility result was “enhanced water solubility”.
As to `O=C(CCS)Nc1ccc2[nH]c(C(=O)Nc3ccc4[nH]c(C(=O)N5C[C@@H](CCl)c6c5cc(OC(=O)N5CCC(N7CCCCC7)CC5)c5ccccc65)cc4c3)cc2c1` [DC3], in series [4], the “stability in aqueous solutions” value was “extremely stable”. In addition, in the series with carboxyl esterase, the “conversion into the parent drug DC1” value is on record as “can be converted into the parent drug DC1”. Further, the water solubility entry in [5] is given as “enhanced water solubility”.
For `O=C(CCS)Nc1ccc2[nH]c(C(=O)Nc3ccc4[nH]c(C(=O)N5C[C@@H](CCl)c6c5cc(OP(=O)(O)O)c5ccccc65)cc4c3)cc2c1` [DC4], the “stability in aqueous solutions” value in [4] is recorded as “extremely stable”. Also, in the series on alkaline phosphatase, the “conversion into the parent drug DC1” value was “converts it into the parent drug DC1”. Also, the water solubility result in series [5] was “soluble”.
With `COc1cc([C@@H]2c3cc4c(cc3[C@@H](O[C@@H]3O[C@@H]5CO[C@@H](C)O[C@H]5[C@H](O)[C@H]3O)[C@H]3COC(=O)[C@H]23)OCO4)cc(OC)c1OP(=O)(O)O` [etoposide phosphate], in series [6], the “conversion in vivo into active drug” value is “rapidly converted into active drug”.
